Source: ChEMBL document CHEMBL6134800, “Applications of innovative synthetic strategies in anticancer drug discovery: The driving force of new chemical reactions” (Bioorg Med Chem Lett, 2025)
In brackets after ≈: the same amount, converted by molar mass.

Assays:
MDA-MB-231 [1] = experiment: Cytotoxicity against human MDA-MB-231 cells assessed as reduction in cell viability incubated for 48 hrs by SRB assay; type: functional, cell-based; details: MDA-MB-231, 48 h
MCF7 [2] = experiment: Cytotoxicity against human MCF7 cells assessed as reduction in cell viability incubated for 48 hrs by SRB assay; type: functional, cell-based; details: MCF7, 48 h
HeLa [3] = experiment: Cytotoxicity against human HeLa cells assessed as reduction in cell viability incubated for 48 hrs by SRB assay; type: functional, cell-based
HepG2 [4] = experiment: Cytotoxicity against human HepG2 cells assessed as reduction in cell viability incubated for 48 hrs by SRB assay; type: functional, cell-based; details: HepG2, 48 h
DU-145 = experiment: Cytotoxicity against human DU-145 cells assessed as reduction in cell viability incubated for 48 hrs by SRB assay; type: functional, cell-based; details: DU-145, 48 h
A549 [5] = experiment: Antiproliferative activity against human A549 cells assessed as reduction in cell growth by MTT assay; type: functional, cell-based
HeLa [6] = experiment: Antiproliferative activity against human HeLa cells assessed as reduction in cell growth by MTT assay; type: functional, cell-based
HeLa [7] = experiment: Antiproliferative activity against human HeLa cells assessed as reduction in cell viability incubated for 48 hrs by MTT assay; type: functional, cell-based
BXPC-3 = experiment: Antiproliferative activity against human BXPC-3 cells assessed as reduction in cell growth incubated for 72 hrs by MTT assay; type: functional, cell-based; details: Homo sapiens, BXPC-3, 72 h
HCT-116 [8] = experiment: Anticancer activity against human HCT-116 cells assessed as reduction in cell viability; type: functional, cell-based
HCT-116 [9] = experiment: Anticancer activity against human HCT-116 cells assessed as inhibition of cell viability at 20 uM relative to control; type: functional
HeLa [10] = experiment: Antiproliferative activity against human HeLa cells assessed as reduction in cell viability incubated for 24 hrs by MTT assay; type: functional, cell-based
A549 [11] = experiment: Antiproliferative activity against human A549 cells assessed as reduction in cell viability incubated for 24 hrs by MTT assay; type: functional, cell-based; details: A549, 24 h
HCT-116 [12] = experiment: Antiproliferative activity against human HCT-116 cells assessed as reduction in cell viability incubated for 24 hrs by MTT assay; type: functional, cell-based; details: HCT-116, 24 h
Escherichia coli = experiment: Antimicrobial activity against Escherichia coli assessed as reduction in microbial growth; type: functional, organism-based
HL-60 = experiment: Cytotoxicity against human HL-60 cells assessed as reduction in cell growth by resazurin assay; type: functional, cell-based
NIH3T3 = experiment: Cytotoxicity against mouse NIH/3T3 cells assessed as reduction in cell growth by resazurin assay; type: functional, cell-based
Bacillus subtilis = experiment: Antibacterial activity against Bacillus subtilis assessed as reduction in bacterial growth; type: functional, organism-based
A549 [13] = experiment: Cytotoxicity against human A549 cells assessed as reduction in cell growth by resazurin assay; type: functional, cell-based
[14] = biological target: Cyclin-dependent kinases regulatory subunit 1/S-phase kinase-associated protein 2 (Homo sapiens) (UniProt P61024+Q13309); experiment: Inhibition of SKP2/CKS1 (unknown origin) protein-protein interaction at 50 uM relative to control; type: protein assay
Chain of Cyclin-dependent kinases regulatory subunit 1/S-phase kinase-associated protein 2 (Homo sapiens) (P61024 2-79 limits assumed): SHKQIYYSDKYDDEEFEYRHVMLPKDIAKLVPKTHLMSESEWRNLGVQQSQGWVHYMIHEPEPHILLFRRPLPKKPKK
Chain of Cyclin-dependent kinases regulatory subunit 1/S-phase kinase-associated protein 2 (Homo sapiens) (Q13309 whole entry partner): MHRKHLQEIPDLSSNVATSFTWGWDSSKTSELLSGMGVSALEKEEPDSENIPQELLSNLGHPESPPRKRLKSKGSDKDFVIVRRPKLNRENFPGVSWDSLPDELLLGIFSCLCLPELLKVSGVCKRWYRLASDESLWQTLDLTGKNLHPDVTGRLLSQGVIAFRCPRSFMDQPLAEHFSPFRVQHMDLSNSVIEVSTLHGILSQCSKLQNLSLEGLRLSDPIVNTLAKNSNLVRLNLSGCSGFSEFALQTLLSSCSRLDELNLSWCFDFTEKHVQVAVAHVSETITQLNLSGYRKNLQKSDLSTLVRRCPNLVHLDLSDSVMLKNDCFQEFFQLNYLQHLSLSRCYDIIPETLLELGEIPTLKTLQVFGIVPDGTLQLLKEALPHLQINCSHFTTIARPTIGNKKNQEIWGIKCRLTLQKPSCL

MCF7 [15] = experiment: Growth inhibition of human MCF7 cells measured for 48 hrs by SRB assay; type: functional
[16] = Cytotoxicity against human BEAS-2B cells assessed as reduction in cell viability by MTT assay; type: toxicity, cell-based
A549 [17] = experiment: Growth inhibition of human A549 cells measured for 48 hrs by SRB assay; type: functional
PC-3 = experiment: Growth inhibition of human PC-3 cells measured for 48 hrs by SRB assay; type: functional
HepG2 [18] = experiment: Growth inhibition of human HepG2 cells measured for 48 hrs by SRB assay; type: functional
MCF7 [19] = experiment: Cytotoxicity against human MCF7 cells assessed as reduction in cell viability by MTT assay; type: functional, cell-based
A549 [20] = experiment: Cytotoxicity against human A549 cells assessed as reduction in cell viability by MTT assay; type: functional, cell-based
T47D = experiment: Antiproliferative activity against human T47D cells; type: functional, cell-based
HCT-116 [21] = experiment: Antiproliferative activity against human HCT-116 cells; type: functional, cell-based
MDA-MB-231 [22] = experiment: Antiproliferative activity against human MDA-MB-231 cells; type: functional, cell-based
LoVo = experiment: Antiproliferative activity against human LoVo cells; type: functional, cell-based
MCF7 [23] = experiment: Antiproliferative activity against human MCF7 cells; type: functional, cell-based

`CCOC(=O)c1sc(-c2ccc(OCC(C)C)c(C(Nc3ccc([N+](=O)[O-])cc3)P(=O)(OCC)OCC)c2)nc1C` (centres undefined) showed an IC50 (MDA-MB-231 [1]) of 6.3 µg/mL (≈ 10.4 µM), an IC50 (MCF7 [2]) of 12.3 µg/mL (≈ 20.3 µM) and an IC50 (HeLa [3]) of 9.6 µg/mL (≈ 15.9 µM). The IC50 (HepG2 [4]) was 20.9 µg/mL (≈ 34.5 µM) and the IC50 (DU-145) was 2.13 µg/mL (≈ 3.52 µM).
`Cc1c2n(c3ccccc13)C(O)(C(F)(F)F)C=C2c1ccccc1` (centres undefined) gave an IC50 (A549 [5]) of 1.26 µM and an IC50 (HeLa [6]) of 31.6 µM.
Work on `Cc1nn(-c2ccc(C#N)cc2)c(O)c1-c1ccccc1C1=Nc2ccccc2C1(C)C` yielded an IC50 (HeLa [7]) of 27.3 µM.
Work on `COc1cccc2c1C(=O)c1c(O)c3c(c(O)c1C2=O)C[C@@](O)(C(=O)CO)C[C@@H]3O[C@H]1C[C@H](N)[C@H](O)[C@H](C)O1.Cl` [DOXORUBICIN HYDROCHLORIDE] yielded an IC50 (MDA-MB-231 [1]) of 8.64 µg/mL, an IC50 (HeLa [3]) of 12.6 µg/mL and an IC50 (HepG2 [4]) of 26.7 µg/mL. For the same compound, the IC50 (DU-145) was 3.82 µg/mL.
Compound `Cc1ccc([C@H]2NC(=O)n3c(cc4ccccc43)C23CC3)cc1` (stereo in doubt; (R)-16a) has an IC50 (BXPC-3) of 6.1 µM.
`CC(C)OC(=O)C1=CN(c2ccccc2)CC(O)(c2cccc(Cl)c2)O1` (centres undefined) showed an IC50 (HCT-116 [8]) of 7.1 µM and an inhibition at 20 µM (HCT-116 [9]) of 77%.
Work on `COc1ccc(C2c3ccccc3-c3nc(C)cc(C(F)(F)F)c32)cc1OC` (centres undefined) yielded an IC50 (HeLa [10]) of 5.52 µM, an IC50 (A549 [11]) of 19.5 µM and an IC50 (HCT-116 [12]) of 15.4 µM.
`Cc1cc(C)cc(P(=O)(c2cc(C)cc(C)c2)C2C(C#N)=C(N)Oc3c(Br)cccc32)c1` (centres undefined) showed an IC50 (Escherichia coli) of over 10 µM, an IC50 (HL-60) of 9.8 µM and an IC50 (NIH3T3) of over 30 µM. It also gave an IC50 (Bacillus subtilis) of over 10 µM and an IC50 (A549 [13]) of over 30 µM.
`COc1cc(OC)c(-c2cc(CC3c4ccccc4C(=O)N3c3ccc(C)cc3)nc3ncnn23)c(OC)c1` (centres undefined) showed an inhibition [14] of 45%.
With `N#CC1=C(N)Oc2ccccc2C1P(=O)(OCc1ccccc1)OCc1ccccc1` (centres undefined) the IC50 (Escherichia coli) was over 10 µM, the IC50 (HL-60) was 6.25 µM and the IC50 (NIH3T3) was 8.73 µM. For the same compound, the IC50 (Bacillus subtilis) was over 10 µM and the IC50 (A549 [13]) was 26.5 µM.
Compound `CN1C(=O)C2(N=C(c3ccccc3)N3CCc4cc(Br)cc2c43)c2ccccc21` (centres undefined) has an IC50 (A549 [11]) of 1 µM.
`Cc1c2n(c3ccc(F)cc13)C(O)(C(F)(F)F)C=C2c1ccccc1` (centres undefined) gave an IC50 (A549 [5]) of 6.34 µM and an IC50 (HeLa [6]) of 2.69 µM.
`O=C1/N=C2/c3ccccc3C(=O)C23C(=C(c2cccs2)N2CCc4cccc3c42)C(=O)c2ccccc21` (centres undefined) gave an IC50 (HeLa [10]) of 1.6 µM, an IC50 (A549 [11]) of 9.18 µM and an IC50 (HCT-116 [12]) of 1.63 µM.
For `CC(C)OC(=O)C1=CN(c2cccc(Br)c2)CC(O)(c2ccccc2)O1` (centres undefined), the IC50 (HCT-116 [8]) was 7.6 µM and the inhibition at 20 µM (HCT-116 [9]) was 59%.
Work on `COc1cccc2c1C(=O)c1c(O)c3c(c(O)c1C2=O)C[C@@](O)(C(=O)CO)C[C@@H]3O[C@H]1C[C@H](N)[C@H](O)[C@H](C)O1` [DOXORUBICIN] yielded a GI50 (MCF7 [15]) of under 10 µg/mL, an IC50 [16] of 4.18 µg/mL (≈ 7.69 µM) and a GI50 (A549 [17]) of under 10 µg/mL. The GI50 (PC-3) was under 10 µg/mL, the IC50 (NIH3T3) was 5.65 µM and the GI50 (HepG2 [18]) was under 10 µg/mL. It also gave an IC50 (A549 [13]) of 0.31 µM.
Compound `OC1(C(F)(F)F)C=C(c2ccccc2)c2cc3ccccc3n21` (centres undefined) has an IC50 (A549 [5]) of 11.9 µM and an IC50 (HeLa [6]) of 2.17 µM.
For `Cc1cc(C)cc(P(=O)(c2cc(C)cc(C)c2)C2C(C#N)=C(N)Oc3ccc(F)cc32)c1` (centres undefined), the IC50 (Escherichia coli) was over 10 µM, the IC50 (HL-60) was 10.1 µM and the IC50 (NIH3T3) was over 30 µM. For the same compound, the IC50 (Bacillus subtilis) was 5.03 µM and the IC50 (A549 [13]) was over 30 µM.
With `COc1ccc(N2C(=O)c3ccccc3C2Cc2cc(-c3c(OC)cc(OC)cc3OC)n3ncnc3n2)cc1` (centres undefined) the inhibition [14] was 54%.
Work on `Cc1cc(C(F)(F)F)c2c(n1)-c1ccccc1C2c1ccsc1` (centres undefined) yielded an IC50 (HeLa [10]) of 2.32 µM, an IC50 (A549 [11]) of over 50 µM and an IC50 (HCT-116 [12]) of over 50 µM.
`CC(C)OC(=O)C1=CN(c2ccc3ccccc3c2)CC(O)(c2ccccc2)O1` (centres undefined) showed an IC50 (HCT-116 [8]) of 9.4 µM and an inhibition at 20 µM (HCT-116 [9]) of 56%.
With `COc1ccccc1C1=C2C(=O)c3ccccc3C(=O)/N=C3/c4ccccc4C(=O)C23c2cccc3c2N1CC3` (centres undefined) the IC50 (HeLa [10]) was 1.54 µM, the IC50 (A549 [11]) was 8.43 µM and the IC50 (HCT-116 [12]) was 2.1 µM.
`COC(=O)c1nc2nc(Oc3ccccc3)c(C#N)c(-c3ccc(OC)cc3)c2c(N)c1C(=O)OC` showed an IC50 [16] of 51.3 µg/mL (≈ 106 µM), an IC50 (MCF7 [19]) of 48.2 µg/mL (≈ 99.6 µM) and an IC50 (A549 [20]) of 10.1 µg/mL (≈ 20.9 µM).
With `CC(C)C[C@H](NC(=O)[C@H](Cc1ccccc1)NC(=O)c1cnccn1)B(O)O` [BORTEZOMIB] the IC50 (HL-60) was 7.42 µM.
`C=C1N(S(=O)(=O)c2ccc(C)cc2)c2ccccc2C1(C)N` (racemic) showed an IC50 (T47D) of 5.37 µM, an IC50 (HCT-116 [21]) of 12.6 µM and an IC50 (MDA-MB-231 [22]) of 3.13 µM. It also gave an IC50 (LoVo) of 10.3 µM and an IC50 (MCF7 [23]) of 3.92 µM.
